{"source": "a melting point compilation (Tetko et al.; mined from patent text by program, amines drawn as free bases though some values may be those of a salt)"}
{"units": {"melting point": "°C"}}
{"compound": "COc1ccc2c(c1)C(=O)N(c1ccc3c(c1)cc(C)n3C)C2", "melting point": "209 to 213"}
{"compound": "COc1ccc(Oc2cccc3ncnc(NC(=O)Nc4cccc(Br)c4)c23)cc1", "melting point": "249 to 251"}
{"compound": "C[Si](C)(C)OC1(C#N)CCOc2c(Cl)cc(-c3ccccc3)cc21", "note": "(stereo not given)", "melting point": "99 to 100"}
{"compound": "CN(C)c1nsc2nc3ccccc3n12", "melting point": "102 to 104"}
{"compound": "O=C(O)CCCN(C(=O)c1cccc(C(F)(F)F)c1)c1cccc2ccccc12", "melting point": "128 to 129"}
{"compound": "CCCCCCCCCCCCCCCCCCOC[C@H](CO)OC(=O)NC", "melting point": "68 to 69"}
{"compound": "COc1ccc(N)c(OC)c1COc1cccc2ccc(C)nc12", "melting point": "208 to 210"}
{"compound": "CCNCc1cnc2c(C)c(NC(=O)c3ccc(OC[C@@H]4CCCO4)cc3)ccc2c1", "melting point": "149 to 151"}
{"compound": "Cc1csc2c1c(-c1ccccc1)nc(=O)n2C", "melting point": "275 to 280"}
{"compound": "O=[N+]([O-])c1ccc(NCCCn2ccnc2)cc1", "melting point": "130 to 132"}
{"compound": "O=Cc1cccc(-c2cnc3cnc(-c4ccc(O)cc4)nc3c2)c1", "melting point": 266}
{"compound": "Cc1c(-c2ccccc2)oc2c(CC(=O)O)cccc2c1=O", "melting point": "191 to 192"}
{"compound": "Cc1cc(Nc2ccn(-c3ccccc3)n2)cc(C)c1O", "melting point": "154 to 155"}
{"compound": "O=C(c1ccc(F)cc1)N(CCCCn1ccnc1)C1=Nc2cccc3cccc1c23", "melting point": "109 to 110"}
{"compound": "CCOc1c(CC)ccnc1C(=O)c1[nH]c2cc(Cl)ccc2c1CC(=O)O", "melting point": 165}
{"compound": "COc1cccc2cc(C(=O)c3ccc(Cl)c([N+](=O)[O-])c3)oc12", "melting point": 136}
{"compound": "CCCCCCCCCCCOC(=O)NCCC", "melting point": "45 to 45.5"}
{"compound": "CC(C)(C)NC(=O)c1ccncc1", "melting point": "115 to 117"}
{"compound": "C=CCOc1cc(NC(=O)C2=C(C(=O)N(C)C)CCCC2)ccc1Cl", "melting point": "129 to 131"}
{"compound": "CC(N=Cc1ccc(O)cc1)C1CCCCC1", "note": "(single isomer, unassigned; (+))", "melting point": "130 to 132"}
{"compound": "O=C1c2ccccc2C(=O)c2c1oc1ccc3cc(O)ccc3c21", "melting point": 318}
{"compound": "CC(=O)N1CCc2ccc(C(=O)NO)cc2C1", "melting point": "177 to 181"}
{"compound": "OC1CCC(Nc2nc(Cl)nc(Cl)n2)CC1", "note": "(stereo not given)", "melting point": 120}
{"compound": "NC(=O)Cc1cc(Oc2ccc3c(ccn3C(=O)Nc3ccc(N4CCNCC4)c(C(F)(F)F)c3)c2)ncn1", "melting point": "149 to 152"}
{"compound": "COc1cccc(-c2nc(N)ncc2-c2ccc(=O)n(C)n2)c1", "melting point": 195}
{"compound": "Nc1nc2ccc(NC(=O)CNC(=O)[C@@H](Cc3ccccc3)NS(=O)(=O)Cc3ccccc3)cc2s1", "melting point": "127 to 130"}
{"compound": "CN(C)c1ccc2c(=O)[nH]c(=O)n(CCCCN3CCC(OC(c4ccccc4)c4ccccc4)CC3)c2c1", "melting point": "203 to 204"}
{"compound": "Cc1ccc(C(O)C2OC2C(C)(C)C)cc1", "note": "(stereo not given)", "melting point": "36 to 39"}
{"compound": "CC1CN(c2nc3ccccc3s2)N=C1N", "note": "(stereo not given)", "melting point": "207 to 209"}
{"compound": "CCOC(=O)c1ccc(N(CCO)C(=O)Nc2ccc(C3CCN(C(=O)C(F)(F)F)CC3)cc2)cc1", "melting point": "105 to 108"}
{"compound": "CCCCCCCCCCCCCCCCCCOC(=O)CCCCCCCCCCCCCCCCC", "melting point": "47 to 55"}
{"compound": "Cc1nc(-c2ccc(F)cc2)n(-c2ccc(S(N)(=O)=O)cn2)n1", "melting point": "221 to 222"}
{"compound": "c1ccc2nc(COc3cccc4cccnc34)ccc2c1", "melting point": "95 to 96"}
{"compound": "CS(=O)(=O)c1ccc(C2=C(c3ccccc3)C(=O)C3(CCCCC3)O2)cc1", "melting point": "126 to 127"}
{"compound": "CC1(C)Oc2ccsc2C(N2CC(=O)NCC2=O)C1O", "note": "(stereo not given)", "melting point": "132 to 133"}
{"compound": "CCOCCN(CCOCC)NC(=O)NS(=O)(=O)c1ccc(Cl)cc1", "melting point": "84.5 to 85.5"}
{"compound": "Cc1sc(I)c(C)c1CO", "melting point": "118 to 120"}
{"compound": "Cc1ccc(N2CCCCC2)c(NC(=O)c2ccncc2)c1", "melting point": "142 to 144"}
{"compound": "COCCc1nc2c(N)nc3ccccc3c2n1CCCNC(=O)N1CCOCC1", "melting point": "194 to 196"}
{"compound": "CCOC(=O)C=Cc1cc(OCc2ccccc2)ccc1-c1ccc(-c2cccc(C(F)(F)F)c2)c(C=O)c1", "melting point": "116 to 118"}
